Source: PMC5242352 (Iranian Journal of Pharmaceutical Research : IJPR, 2016)
“And” between values parts separate entries of the source, which are not always exact repeats. Equal values may be shown once. Read-outs that look alike come from different tables or passages of the source.

Target: Jack bean urease (Canavalia ensiformis, UniProt P07374)
Assay: Urease inhibition assay
Format: biochemical

Jack bean urease, sequence (P07374 whole entry, looked up): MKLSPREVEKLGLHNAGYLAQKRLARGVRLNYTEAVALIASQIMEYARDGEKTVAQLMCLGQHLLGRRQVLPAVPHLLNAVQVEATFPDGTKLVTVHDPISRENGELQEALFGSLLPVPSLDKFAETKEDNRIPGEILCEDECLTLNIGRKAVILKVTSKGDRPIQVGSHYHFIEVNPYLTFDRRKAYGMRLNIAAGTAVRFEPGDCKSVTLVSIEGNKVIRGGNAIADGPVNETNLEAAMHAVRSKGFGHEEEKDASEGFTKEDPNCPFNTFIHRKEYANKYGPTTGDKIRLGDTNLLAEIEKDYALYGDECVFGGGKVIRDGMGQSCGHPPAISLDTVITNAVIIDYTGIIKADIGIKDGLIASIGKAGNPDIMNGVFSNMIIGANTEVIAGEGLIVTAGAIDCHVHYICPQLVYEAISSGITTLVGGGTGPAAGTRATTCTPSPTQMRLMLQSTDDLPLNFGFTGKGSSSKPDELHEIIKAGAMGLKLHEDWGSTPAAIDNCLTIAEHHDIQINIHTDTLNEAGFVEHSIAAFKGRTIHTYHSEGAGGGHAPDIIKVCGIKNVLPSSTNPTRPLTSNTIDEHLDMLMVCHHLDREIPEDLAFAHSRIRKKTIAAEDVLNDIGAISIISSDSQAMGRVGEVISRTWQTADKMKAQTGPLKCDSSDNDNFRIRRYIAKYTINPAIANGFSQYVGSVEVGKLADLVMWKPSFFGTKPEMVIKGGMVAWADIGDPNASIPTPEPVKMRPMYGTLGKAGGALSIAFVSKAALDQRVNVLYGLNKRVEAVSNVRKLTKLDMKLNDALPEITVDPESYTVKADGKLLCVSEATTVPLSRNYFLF

Compound | IC50 (read-out: IC50 (urease inhibitory activity), 37 °C, 30 minutes, read at 625 nm, triplicate) [µM] | IC50 (IC50 (urease inhibitory activity), 37 °C, 30 minutes, read at 625 nm, triplicate)
NC(=O)NO [hydroxyurea, reference compound] | 100 | –
CC1(C)CC(=O)C2=C(C1)Nc1[nH]c(=O)[nH]c(=O)c1C21C(=O)Nc2ccccc21 (centres unmarked) [7a, 8',8'-Dimethyl-8',9'-dihydro-1'H-spiro [indoline-3,5'-pyrimido[4,5-b]quinoline]-2,2',4', 6'(3'H,7'H,10'H)-tetraone] | – | 7.44 µM and 2.81 µM
